The record followed here is US5028605A, “8-alkylaminoimidazo(1,2-a)pyrazines and derivatives, their preparation and their application in therapy” (l'Universite de Montpellier I, priority 1986, dated 1991).

A value given as a limit tells only on which side of the number the result lay.

The subject of the first assay is duodenum. The assay can be described thus: Antispasmodic activity: barium chloride-induced contraction of isolated rat duodenum (Magnus). The note with it: barium chloride 10^-4 M, isolated rat duodenum, 37° C.; mean of 5 to 6 determinations. As for the experimental part: Fragments of duodenum are removed from male rats (200 g), fasted for 24 hours and killed by decapitation, and are mounted, after being washed, in a thermostatted (37° C.) isolated organ cell and maintained in survival in Tyrode's solution according to Magnus's classical technique.
The spasmogenic agent used is barium chloride (10^-4 M).
In the first instance, the spasmogenic agent is added to the nutrient bath and, as soon as the contraction of the organ reaches its maximum, the relaxant agent is added to the medium. Working in relation to a fixed concentration of barium chloride with variable concentrations of relaxant, the ED50 of the latter, capable of reducing the induced contraction by 50%, is determined.
The results expressed in Table IV below show the ratio ED50 Theo/ED50 product, established on the basis of the mean of the results of 5 to 6 determinations per product (ED50theophylline=8×10^-4 M).
With `CCNc1ncc(Cl)n2ccnc12` [Compound 12, 5-Chloro-8-ethylaminoimidazo[1,2-a]pyrazine], the “ED50 Theo/ED50 product (antispasmodic activity)” value stood at 27.

Another assay deals with mice. The assay can be described thus: Motor activity: spontaneous activity in mice (neurosedative effect). It counts as in vivo, mouse. The settings on record: 55 μmol/kg intraperitoneally, male mice, 50 minutes. As for the experimental part:
The measurement of the neurosedative effect is based on the test of activity measurements in mice. […] Five minutes after the administration, the animals are placed in activity-measuring cages, which record their movements digitally by means of the interruption of beams of light. The results are recorded in Table IX and expressed as the percentage variation (increase or decrease ) in activity compared with the controls during a period of 50 minutes following the administration.
For `CCOC(=O)c1cn2cc(Br)nc(NC)c2n1` [Compound 23, ethyl 6-bromo-8-methylaminoimidazo[1,2-a]pyrazine-2-carboxylate], the “spontaneous activity - % variation compared with the controls, decrease (.dwnarw.)” value is recorded as 43%.

Still in this assay, the particulars now being: 166 μmol/kg intraperitoneally, male mice, 50 minutes.
On to `CCOC(=O)c1cn2cc(Br)nc(NC)c2n1` [Compound 23, ethyl 6-bromo-8-methylaminoimidazo[1,2-a]pyrazine-2-carboxylate], for which the “spontaneous activity - % variation compared with the controls, decrease (.dwnarw.)” value worked out at 56%.

In another assay the test system is guinea pig trachea. The assay can be described thus: Isolated guinea pig trachea: anti-contractional activity against carbachol. The settings on record: carbachol 10^-4 M, isolated guinea pig trachea; mean of 5 to 6 determinations. Here is the method: Guinea pigs of both sexes weighing on average 400 to 600 g are sacrificed, and the tracheas are removed and placed at 37° C. in an oxygenated environment (95% O2 -5% CO2) in Krebs fluid of the following composition (mM): NaCl (116), MgSO4 (1.2), KCl (3.7), CaCl2 (2.6), KH2 PO4 (2.2), NaHCO3 (24.9), glucose (10). The tracheal segments are then mounted horizontally between two hooks, one of which is fixed to the base of the isolated organ cell and the other is attached to a myograph under a tension of 0.5 g. The organ is left at rest for one hour and is subjected to four washes. The contraction-inducing reagent (carbachol) is added at a concentration (10^-4 M) greater than the concentration giving the maximum effect. After stabilization of the contractional effect, gradually increasing accumulative amounts of the test products are added to the cell. The bronchodilatory effect is measured as the percentage inhibition of the maximal contraction and EC50 represents the concentration inhibiting this concentration by 50%.
Regarding `Nc1nccn2c(Br)cnc12` [Compound 5, 8-amino-3-bromoimidazo[1,2-a]pyrazine], the “EC50 Theo/EC50 product (anti-contractional activity, trachea)” value (shortened to “EC50 Theo/EC50 product”) is given as 11.
On the same count and under the same terms, the same measure for `Nc1nccn2ccnc12` [Compound 1, 8-aminoimidazo[1,2-a]pyrazine]: 1.5; for `CCNc1nccn2ccnc12` [Compound 3, 8-ethylaminoimidazo[1,2-a]pyrazine]: 1; for `CCNc1nccn2c(Br)cnc12` [Compound 7]: 5.
Turning to `c1coc(CNc2nccn3ccnc23)c1` [Compound 39, 8-furfurylaminoimidazo[1,2-a]pyrazine], the “EC50 Theo/EC50 product” value is listed as below 1.
As to `Brc1cn2ccnc2c(N2CCOCC2)n1` [Compound 11, 6-bromo-8-morpholinoimidazo[1,2-a]pyrazine], the “EC50 Theo/EC50 product” value is recorded as below 1.
On to `CNc1nccn2ccnc12` [Compound 2, 8-methylaminoimidazo[1,2-a]pyrazine], for which the “EC50 Theo/EC50 product” value is below 1.
The same measure, in the same setting: the same measure for `c1cn2ccnc2c(N2CCOCC2)n1` [Compound 4, 8-Morpholinoimidazo[1,2-a]pyrazine]: below 1.

A further assay concerns histamine-induced bronchoconstriction, guinea pigs. Nature of the assay: Antibronchospastic activity: histamine-induced bronchospasm in anesthetized guinea pigs. The class given is in vivo, guinea pig. The note with it: intravenous, 30 seconds before histamine; mean of 5 to 8 determinations. As for the experimental part:
Guinea pigs of both sexes weighing between 400 and 600 g are anesthetized with ethyl carbamate ([…] i.p.). After tracheotomy, the animal is placed under artificial respiration at a constant flowrate (Palmer pump 1 m1/100 g×60/min). A take-off at the tracheal cannula enables the volume of air to be gaged at each inhalation by means of a Marey drum. Bronchospasm is induced by intraveneous (jugular) administration of histamine. For each animal, the dose of histamine (8 to 12 μg/kg) inducing an increase in the recording trace equal to double its initial value is determined. The dose adopted should provide three identical responses at intervals of 10 minutes.
The test product is administered intraveneously and then, 30 seconds later, histamine is administered again.
As to `CCOC(=O)Cc1cn2cc(Br)nc(N)c2n1` [Compound 32, ethyl 8-amino-6-bromoimidazo[1,2-a]pyrazine-2-acetate], the “ED50 Theo/ED50 product (bronchospasm induced in guinea pigs)” value amounted to 1.6.
With `Nc1nccn2c(Br)cnc12` [Compound 5, 8-amino-3-bromoimidazo[1,2-a]pyrazine], the “ED50 Theo/ED50 product (bronchospasm induced in guinea pigs)” value worked out at 2.
Consider `CCOC(=O)c1cn2ccnc(N3CCOCC3)c2n1` [Compound 21, ethyl 8-morpholinylimidazo[1,2-a]pyrazine-2-carboxylate], for which the “ED50 Theo/ED50 product (bronchospasm induced in guinea pigs)” value is recorded as below 1.
Same read-out and setting: the same measure for `CCOC(=O)c1cn2cc(Br)nc(N)c2n1` [Compound 22, ethyl 8-amino-6-bromoimidazo[1,2-a]pyrazine-2-carboxylate]: 1.5; for `CCNc1nc(Br)cn2cc(C(=O)OCC)nc12` [Compound 24, ethyl 6-bromo-8-ethylaminoimidazo[1,2-a]pyrazine-2-carboxylate]: 1.
For the molecule `CCOC(=O)c1cn2cc(Br)nc(NC)c2n1` [Compound 23, ethyl 6-bromo-8-methylaminoimidazo[1,2-a]pyrazine-2-carboxylate], the “ED50 Theo/ED50 product (bronchospasm induced in guinea pigs)” value was 1.
As for `Brc1cn2c(Br)cnc2c(N2CCCCC2)n1` [Compound 38, 3,6-dibromo-8-piperidylimidazo[1,2-a]pyrazine], the “ED50 Theo/ED50 product (bronchospasm induced in guinea pigs)” value amounted to 1.1.
Regarding `CCOC(=O)c1cn2ccnc(N3CCCCC3)c2n1` [Compound 20, ethyl 8-piperidylimidazo[1,2-a]pyrazine-2-carboxylate], the “ED50 Theo/ED50 product (bronchospasm induced in guinea pigs)” value amounted to 1.
For `CCCCNc1nc(Br)cn2cc(C(=O)OCC)nc12` [Compound 26, ethyl 6-bromo-8-butylaminoimidazo[1,2-a]pyrazine-2-carboxylate], the “ED50 Theo/ED50 product (bronchospasm induced in guinea pigs)” value is on record as below 1.
`Brc1cn2ccnc2c(NCc2ccco2)n1` [Compound 36, 6-bromo-8-furfurlaminoimidazo[1,2-a]pyrazine]: the “ED50 Theo/ED50 product (bronchospasm induced in guinea pigs)” value is listed as below 1.
For `Brc1cn2c(Br)cnc2c(N2CCOCC2)n1` [Compound 16, 3,6-dibromo-8-morpholinoimidazo[1,2-a]pyrazine], the “ED50 Theo/ED50 product (bronchospasm induced in guinea pigs)” value amounted to 1.
As to `Brc1cn2c(Br)cnc2c(NCc2ccco2)n1` [Compound 37, 3,6-dibromo-8-furfurylaminoimidazo[1,2-a]pyrazine], the “ED50 Theo/ED50 product (bronchospasm induced in guinea pigs)” value worked out at 1.4.
Turning to `CCOC(=O)c1cn2cc(Br)nc(NC(C)CC)c2n1` (centres unmarked) [Compound 27, ethyl 6-bromo-8-sec-butylaminoimidazo[1,2-a]pyrazine-2-carboxylate], the “ED50 Theo/ED50 product (bronchospasm induced in guinea pigs)” value was below 1.
As for `N#Cc1cn2cc(Br)nc(N3CCOCC3)c2n1` [Compound 35, 6-Bromo-8-morpholinoimidazo[1,2-a]pyrazine-2-carbonitrile], the “ED50 Theo/ED50 product (bronchospasm induced in guinea pigs)” value is below 1.
On the same count and under the same terms, the same measure for `CCOC(=O)c1cn2cc(Br)nc(NCCO)c2n1` [Compound 30, ethyl 6-bromo-8-(2-hydroxyethylamino)imidazo[1,2-a]pyrazine-2-carboxylate]: below 1; for `Nc1nc(Br)cn2c(Br)cnc12` [Compound 13, 8-Amino-3,6-dibromoimidazo[1,2-a]pyrazine]: 3.5; for `CCCNc1nc(Br)cn2cc(C(=O)OCC)nc12` [Compound 25, ethyl 6-bromo-8-propylaminoimidazo[1,2-a]pyrazine-2-carboxylate]: below 1.
Consider `CNC(=O)c1nc2c(NC)nc(Cl)c(Cl)n2c1Cl` [Compound 34, 3,5,6-Trichloro-8-methylamino-N-methylimidazo[1,2-a]pyrazine-2-carboxamide], for which the “ED50 Theo/ED50 product (bronchospasm induced in guinea pigs)” value is 1.2.
Regarding `Brc1cn2ccnc2c(N2CCOCC2)n1` [Compound 11, 6-bromo-8-morpholinoimidazo[1,2-a]pyrazine], the “ED50 Theo/ED50 product (bronchospasm induced in guinea pigs)” value is 1.
Consider `CNc1nc(Br)cn2cc(C(N)=O)nc12` [Compound 31, 6-Bromo-8-methylaminoimidazo[1,2-a]pyrazine-2-carboxamide], for which the “ED50 Theo/ED50 product (bronchospasm induced in guinea pigs)” value is listed as 1.
Turning to `CCNc1nc(Br)cn2c(Br)cnc12` [Compound 15, 3,6-dibromo-8-ethylaminoimidazo[1,2-a]pyrazine], the “ED50 Theo/ED50 product (bronchospasm induced in guinea pigs)” value amounted to 1.6.
On to `CCOC(=O)Cc1cn2cc(Br)nc(NC)c2n1` [Compound 33, Ethyl 6-bromo-8-methylaminoimidazo[1,2-a]pyrazine-2-acetate], for which the “ED50 Theo/ED50 product (bronchospasm induced in guinea pigs)” value is recorded as 1.
`CCCNc1nccn2cc(C(=O)OCC)nc12` [Compound 19, ethyl 8-propylaminoimidazo[1,2-a]pyrazine-2-carboxylate]: the “ED50 Theo/ED50 product (bronchospasm induced in guinea pigs)” value is below 1.
The same measure, in the same setting: the same measure for `CCOC(=O)c1cn2cc(Br)nc(N3CCCCC3)c2n1` [Compound 28, ethyl 6-bromo-8-piperidylimidazo[1,2-a]pyrazine-2-carboxylate]: below 1; for `CNc1nc(Br)cn2c(Br)cnc12` [Compound 14, 3,6-dibromo-8-methylaminoimidazo[1,2-a]pyrazine]: 1.9.
Regarding `CCOC(=O)c1cn2ccnc(NC)c2n1` [Compound 18, ethyl 8-methylaminoimidazo[1,2-a]pyrazine-2-carboxylate], the “ED50 Theo/ED50 product (bronchospasm induced in guinea pigs)” value is reported as 1.
Regarding `CCOC(=O)c1cn2cc(Br)nc(N3CCOCC3)c2n1` [Compound 29, ethyl 6-bromo-8-morpholinylimidazo[1,2-a]pyrazine-2-carboxylate], the “ED50 Theo/ED50 product (bronchospasm induced in guinea pigs)” value is reported as 1.
